Data set [1] deals with CB1 receptor (Mus musculus, UniProt P47746). Conditions: low doses (<3 mg/kg), Pertwee et al., 2007; cited from earlier work.
Another data set addresses CB2 receptor (Homo sapiens, UniProt P34972). The settings on record: in vitro, Thomas et al., 2005; cited from earlier work.
For data set [2], the system named is Sprague-Dawley rats. Briefly: Potentiation or attenuation of LiCl-induced conditioned gaping (Example 2). Type of data set: in vivo, rat. The settings on record: for LiCl-induced conditioned gaping reactions relative to group VEH: rats, drug-free test 72 h later. On the procedure:
Animals and Drugs and Materials were as described in Example 1 above.
Following recovery from intraoral cannulation surgery, the rats received the adaptation trial to the TR test as described in Example 1 above. On the day of conditioning (saccharin palatability test), the rats were injected with VEH (n=10), 2.5 mg/kg SR (n=10), 2.5 mg/kg THC (n=6), 10 mg/kg THC (n=7), 2.5 mg/kg THCV (n=10) or 10 mg/kg THCV (n=6), 2.5 mg/kg CBDV (n=10) or 200 mg/kg CBDV (n=13). Thirty min later, each rat was intraorally infused with 0.1% saccharin solution while their orofacial responses were video recorded from the mirror beneath the chamber. Immediately following the 2 min intraoral infusion of saccharin, the rats were injected with 20 ml/kg or 0.15 M LiCl.
Seventy-two hours later, the rats received a drug-free test trial, during which they received a 2 min intraoral infusion of 0.1% saccharin solution and the frequency of gaping was measured. The videotapes were later scored (at 1/2 speed) by an observer blind to the experimental conditions for the hedonic reaction of tongue protrusions (at conditioning and testing). As well, to determine other non-specific effects of the drug during conditioning, the conditioning tapes were scored for bouts of active locomotion (forward movement of paws on the floor of the cage).

Data set [3] relates to Sprague-Dawley rats. Briefly: Conditioned gaping to saccharin paired with the compound (Example 1). As for the experimental part:
Naïve male Sprague-Dawley rats, obtained from Charles River Laboratories (St Constant, Quebec) were single-housed in shoebox cages in the colony room at an ambient temperature of 21° C. with a 12/12 light/dark schedule (lights off at 8 AM) and maintained on ad-libitum food and water.
Drugs and Materials: All cannabinoid compounds were prepared in a vehicle (VEH) of ethanol/Cremophor (Sigma)/saline (SAL; 1:1:18) and administered intraperitonally (i.p.).
SR was prepared at 2.5, 10 and 20 mg/kg and administered at a volume of 2 ml/kg. CBDV was prepared at 2.5 and 10 mg/kg and administered at a volume of 2 ml/kg. A high dose of CBDV was prepared at 200 mg/kg and administered at a volume 10 ml/kg. THCV was prepared at 2.5, 10 and 20 mg/kg and administered at a volume of 2 ml/kg.
Procedures: Rats were implanted with intraoral cannulae under isofluorane anesthesia. […]
Seventy two hours after the conditioning trial, the rats were returned to the TR chamber and intraorally infused with 0.1% saccharin solution and their orofacial reactions were video recorded with the feed from the video camera fire-wired into a computer. The video tapes are later scored (at 1/2 speed) by a trained observer blind to the experimental conditions for the behaviour of gaping (large openings of the mouth and jaw, with lower incisors exposed).

In data set [4] the target is CB1 receptor (Homo sapiens, UniProt P21554). The settings on record: in vitro, Thomas et al., 2005; cited from earlier work.
The test system of a further data set is rodent. Conditions: cited from earlier work; for suppression of toxin-induced conditioned gaping: rodent model of conditioned nausea.
The mark [5] stands for this setting: 2.5 mg/kg i.p. 30 min before saccharin-LiCl pairing.

Entries after “also recorded” stand apart in the source; their conditions may differ. Read-outs that look alike come from different tables or passages of the source.

CB2 receptor, sequence (P34972 whole entry): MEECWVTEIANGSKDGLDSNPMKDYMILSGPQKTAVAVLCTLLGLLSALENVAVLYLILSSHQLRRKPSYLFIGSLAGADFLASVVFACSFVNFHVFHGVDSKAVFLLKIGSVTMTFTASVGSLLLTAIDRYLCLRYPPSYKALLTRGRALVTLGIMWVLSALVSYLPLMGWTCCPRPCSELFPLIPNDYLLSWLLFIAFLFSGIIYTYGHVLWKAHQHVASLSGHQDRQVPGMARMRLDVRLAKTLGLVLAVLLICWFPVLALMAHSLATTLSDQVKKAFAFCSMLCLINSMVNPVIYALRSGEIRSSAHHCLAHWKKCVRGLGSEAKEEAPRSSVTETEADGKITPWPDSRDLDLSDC
CB1 receptor (Homo sapiens, UniProt P21554), sequence (P21554 whole entry): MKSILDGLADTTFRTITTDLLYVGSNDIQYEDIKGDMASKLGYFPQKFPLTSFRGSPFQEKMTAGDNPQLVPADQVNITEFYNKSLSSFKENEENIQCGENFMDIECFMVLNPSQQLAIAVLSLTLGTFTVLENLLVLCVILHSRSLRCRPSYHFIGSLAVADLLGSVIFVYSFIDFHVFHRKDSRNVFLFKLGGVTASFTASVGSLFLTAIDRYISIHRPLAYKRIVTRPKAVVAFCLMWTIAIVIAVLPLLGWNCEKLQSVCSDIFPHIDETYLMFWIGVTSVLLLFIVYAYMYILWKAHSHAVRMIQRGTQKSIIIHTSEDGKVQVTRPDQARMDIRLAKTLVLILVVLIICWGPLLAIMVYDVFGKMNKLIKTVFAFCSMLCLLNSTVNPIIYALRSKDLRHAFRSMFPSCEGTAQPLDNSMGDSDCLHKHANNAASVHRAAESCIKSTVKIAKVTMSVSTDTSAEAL
CB1 receptor (Mus musculus, UniProt P47746), sequence (P47746 whole entry): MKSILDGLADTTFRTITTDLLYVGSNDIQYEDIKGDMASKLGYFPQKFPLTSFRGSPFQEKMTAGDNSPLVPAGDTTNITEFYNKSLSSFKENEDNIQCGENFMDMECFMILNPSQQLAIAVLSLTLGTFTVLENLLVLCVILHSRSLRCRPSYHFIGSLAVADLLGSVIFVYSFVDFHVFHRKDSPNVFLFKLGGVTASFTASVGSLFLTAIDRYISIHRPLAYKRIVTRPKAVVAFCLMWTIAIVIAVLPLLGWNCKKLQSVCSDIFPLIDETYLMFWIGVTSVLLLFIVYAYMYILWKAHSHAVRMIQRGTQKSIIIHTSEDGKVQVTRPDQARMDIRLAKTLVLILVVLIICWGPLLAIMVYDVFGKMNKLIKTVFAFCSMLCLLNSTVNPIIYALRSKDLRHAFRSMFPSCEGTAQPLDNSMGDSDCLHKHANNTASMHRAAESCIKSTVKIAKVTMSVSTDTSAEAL

As for `CCCc1cc(O)c2c(c1)OC(C)(C)[C@@H]1CCC(C)=C[C@@H]21` [THCV, tetrahydrocannabivarin], on CB1 receptor [1], the “action at the CB1 receptor in vivo” value is “act as a CB1 receptor antagonist”. Moreover, the “action at the CB2 receptor” value at CB2 receptor was “acts as a CB1 and CB2 receptor antagonist”. Further, the “human equivalent dose of the dose that blocked LiCl-induced nausea” value in the data set on Sprague-Dawley rats [2] (calculated from the rat dose, Km rat 6, Km human 37) was “greater than 0.4 mg/kg”. Moreover, the “dose that blocked LiCl-induced nausea” value with Sprague-Dawley rats [2] (in rats) is “greater than 2.5 mg/kg”. Moreover, the “LiCl-induced conditioned gaping reactions relative to group VEH” value is on record as “marginally attenuated LiCl-induced gaping reactions” with Sprague-Dawley rats [2] (setting [5]) and “no gaping reactions; also recorded: eliminated LiCl-induced nausea” with Sprague-Dawley rats [2] (10 mg/kg i.p. 30 min before saccharin-LiCl pairing, 10 mg/kg). The “conditioned gaping reactions (nausea-like reactions) elicited by 0.1% saccharin previously paired with the compound” value in the data set with Sprague-Dawley rats [3] (rats, i.p., all doses tested (SR 10, 20; AM251 10; THCV 10, 20; CBDV 10, 200 mg/kg), drug-free test 72 h after conditioning, vs VEH and other groups) is on record as “did not produce apparent inverse agonist properties; also recorded: neither CBDV (10 or 200 mg/kg) nor THCV (10 or 20 mg/kg) produced the nausea-like profile of conditioned gaping”. Also, the “action at the CB1 receptor” value on CB1 receptor [4] is “acts as a CB1 and CB2 receptor antagonist”.
`C=C(C)[C@@H]1CCC(C)=C[C@H]1c1c(O)cc(CCCCC)cc1O` [CBD, cannabidiol]: the “suppression of toxin-induced conditioned gaping” value in the data set with rodent (5 mg/kg) is given as “suppress toxin-induced conditioned gaping”.
Take `CCCCCc1cc(O)c2c(c1)OC(C)(C)[C@@H]1CCC(C)=C[C@@H]21` [THC, tetrahydrocannabinol]: the “suppression of toxin-induced conditioned gaping” value in the data set on rodent (0.5 mg/kg) is on record as “suppress toxin-induced conditioned gaping”. Further, the “LiCl-induced conditioned gaping reactions relative to group VEH” value with Sprague-Dawley rats [2] (setting [5]) and with Sprague-Dawley rats [2] (10 mg/kg i.p. 30 min before saccharin-LiCl pairing) was “significantly attenuated the LiCl-induced gaping reactions” throughout.
`C=C(C)[C@@H]1CCC(C)=C[C@H]1c1c(O)cc(CCC)cc1O` [CBDV]: the “LiCl-induced conditioned gaping reactions relative to group VEH” value in the data set on Sprague-Dawley rats [2] (setting [5]) is listed as “marginally attenuated LiCl-induced gaping reactions”; in the data set on Sprague-Dawley rats [2] (200 mg/kg i.p. 30 min before saccharin-LiCl pairing, 200 mg/kg) it was “significantly attenuated the LiCl-induced gaping reactions; also recorded: statistically significant anti-nausea effect”.
Regarding `Cc1c(C(=O)NN2CCCCC2)nn(-c2ccc(Cl)cc2Cl)c1-c1ccc(Cl)cc1` [SR, rimonabant], the “potentiation of the nausea produced by LiCl (potentiated gaping)” value in the data set with rodent (2.5 mg/kg, sub-threshold for nausea on its own, pre-treatment prior to saccharin-LiCl pairing, drug-free test 72 hours after conditioning) is on record as “potentiated the nausea produced by LiCl”. Further, the “LiCl-induced conditioned gaping reactions relative to group VEH” value in the data set on Sprague-Dawley rats [2] (setting [5]) was “potentiated LiCl-induced gaping reactions”. In the data set on Sprague-Dawley rats [3] (rat, in vivo), the “conditioned gaping, 20 mg/kg compared with 10 mg/kg” value is on record as “marginally more gaping”.
